Experimental findings from patent publication US9233954B2, “Organic amine salts of Azilsartan, preparation method and use thereof” (Jiangsu Hansoh Pharmaceutical Co., Ltd., priority 2011, dated 2016) are described below.

Like-named read-outs stand apart in the source and are kept apart here.

Data set [1] is described as follows: Hygroscopicity test. It is filed as physicochemical. To be noted: 25° C.±1° C., RH 80%±2%, 24 h. Here is the method:
1. A dried glass weighing bottle (Outer diameter […]) with a plug was put into an artificial climate box under the temperature of 25° C.±1° C. and relative humidity (RH) of 80%±2% the day before and then weighed precisely (m1).
2. The testing sample was weighed precisely (m2) and lain into the weighing bottle. The thickness of the test sample was about 1 mm.
3. The uncovered weighing bottle and its plug were placed under the above constant temperature and humidity conditions for 24 h.
4. The weighing bottle was covered and weighed precisely (m3).
Calculation formula: Percent of weight increase=(m3−m2)/(m2−m1)*100%
5. Definition of the weight increase of the hygroscopicity
Deliquescence: absorbing enough water to form liquid.
High hygroscopicity: the weight increase of the hygroscopicity is no less than 15%
Having hygroscopicity: the weight increase of the hygroscopicity is between 15% and 2%
Slight hygroscopicity: the weight increase of the hygroscopicity is between 2% and 0.2%
No or almost no hygroscopicity: the weight increase of the hygroscopicity is less than 0.2%

For data set [2], the system named is blood pressure of SHR rats. The experiment in a line: Antihypertensive effect test for spontaneously hypertensive (SHR) rats. It is filed as in vivo. To be noted: 10 mg/kg. Here is the method:
Antihypertensive Effect Test For Spontaneously Hypertensive (SHR) Rats
38 of 25 week old SHR male rats were randomly divided into 4 groups according to the initial blood pressure, with 6 for the control group (solvent) and 8 for other groups. 10 mg/kg of example 2 compound (Choline Azilsartan), example 4 compound (Azilsartan ethanolamine salts) and control (Azilsartan medoxomil potassium salt) were continuously administered, respectively. The solvent control group was administered solvent. The administration volume was 5 ml/kg and the period was 2 weeks.

Data set [3] deals with Beagle dog. The class given is in vivo. To be noted: for Clinical observations: intragastric. From the text: Acute Toxicity Test Research for Beagle Dog
Object: Approximate lethal dose method was introduced in the test to observe the acute toxicity response of the animals by intragastric administration of example 2 or Azilsartan medoxomil potassium salt to Beagle dogs to study the toxicity situation of example 2 after administration and compare the toxicity of example 2 and Azilsartan medoxomil potassium salt, which can provide reference confirmation for the evaluation of toxicity of example 2.
Method (approximate lethal dose method): 6 Beagle dogs were used, 3 for each of example 2 group and Azilsartan medoxomil potassium salt group. The administration dosage was 0.09, 0.13, 0.19, 0.28, 0.42, 0.63, 0.95, 1.42, 2.13, 3.20 g·kg^−1 respectively, wherein 3.20 g·kg^−1 was the maximum administration dosage (corresponding to 1081 times the given dosage for the clinical patient). The blood was collected before administration and on days 2, 7, and 14 after administration to test the corresponding biochemical indicators. Electrocardiogram, body weight, and body temperature were determined before administration and on days 7 and 14 after administration.

The conditions of data set [4]: rat, in vivo, po.
Method: Drug Metabolism Test of Sprague Dawley (SD) Rats after Administration
Twelve SD rats that weighed 200-250 g were randomly divided into two groups with each group having 6 rats, half male and half female. […] 0.5 ml blood were collected from orbit before administration and at 0.5, 1.0, 2.0, 3.0, 4.0, 5.0, 7.0, 10, 24 and 48 h after administration. Plasma concentration of Azilsartan (TAK-536), M1 (product of decarboxylation of Azilsartan) and M2 (product of O-dealkylation) was measured.
[5] abbreviates: Beagle dog, intragastric administration.
Where [6] appears, read: all of the animals in the group, 1.42-3.20 g·kg^−1.

On to `CCOc1nc2cccc(C(=O)O)c2n1Cc1ccc(-c2ccccc2-c2noc(=O)[nH]2)cc1.CCOc1nc2cccc(C(=O)[O-])c2n1Cc1ccc(-c2ccccc2-c2noc(=O)[nH]2)cc1.C[N+](C)(C)CCO` [Example 2], for which, in data set [1], the “Hygroscopicity (percent of weight increase)” value is reported as 0.02%. Also, the “Conclusion (hygroscopic or not)” value in data set [1] (listed as Example 2 Compound) is on record as “No”. Also, the “Conclusion (hygroscopic or not)” value in data set [1] (listed as example 2 compound) is on record as “not hygroscopic”. In data set [2] (SHR rats, 2 weeks), the “Antihypertensive effect compared with control (Azilsartan medoxomil potassium salt)” value is reported as “superior to the antihypertensive effect of control” and the “Antihypertensive effect, ranking under the same dosage” value is reported as “optimal”. Also, the “Effect on blood pressure of SHR rats compared with solvent control” value in data set [2] (continuously administered for one or two weeks, FIG. 4) was “reduce the blood pressure of SHR rats significantly”. Moreover, the Dissection findings entry in data set [3] (1.42 g·kg^−1 dosage group) is “the stomach was filled and contained amounts of particle food; the cardiac mucosa was red and showed sporadic red dot; other viscera did not show anomalies”. Also, the Clinical observations entry in data set [3] (1.42 g·kg^−1 dosage group, Beagle dog) was “liquid stools and less moving, moving reduction on day 2 after administration, the moving recovered to normal on day 3 and no abnormality was observed after day 3”. Further, the Clinical observations entry in data set [3] (2.13 g·kg^−1 dosage group, Beagle dog) is “on the day of administration no abnormality was observed and the animals showed vomit, moving reduction on day 2 after administration, loose stools and moving recovered on day 3, and the excreta recovered to normal on day 4 and no abnormality observed after day 4”. In addition, in data set [3] (2.13 g·kg^−1 dosage group, day 15), the Dissection findings entry was “the stomach was filled and contained amounts of particle food; the cardiac mucosa was red and showed sporadic red dot; other viscera did not show anomalies”. For the same compound, in data set [3] (3.20 g·kg^−1 dosage), the Blood biochemical indicators entry was “ALT of dogs with 3.20 g·kg^−1 dosage was increased on day 2 and recovered to normal on day 7”; the Fib result was “increased significantly on day 2 after administration”. Besides, in data set [3] (3.20 g·kg^−1 dosage group), the “Histopathology (HE, light microscope)” value is recorded as “did not show obvious anomalies”. Also, the Clinical observations result in data set [3] (3.20 g·kg^−1 dosage group, Beagle dog) is “loose stools, liquid stools, vomit until the end of the observation and showed liquid stools, moving reduction on day 2 after administration, showed loose stools on day 3 and the moving recovered, the excreta recovered to normal on day 4 and no abnormality observed after that”. For the same compound, the “Systolic blood pressure and diastolic blood pressure” value in data set [3] (5 animals of the two groups together) is listed as “reduced more or less on day 2 after administration”. In addition, in data set [3] (setting [5]), the “Acute toxicity, comparison” value is “lower than that of Azilsartan medoxomil potassium salt” and the Approximate lethal dose entry is listed as “more than 3.20 g·kg^−1”. In addition, in data set [3] (setting [6]), the Body temperature entry was “no abnormality on day 7 after administration”; the Body weight result is “decreased on day 7 after administration compared with pre-administration”; the “Electrocardiogram and haematological indicators” value is “not abnormal on day 7 after administration”. Besides, the PT values result in data set [3] (all the animals of the group, after vs. pre-administration) is recorded as “reduced significantly after administration compared to pre-administration”. The Blood biochemical indicators result in data set [3] (all the dogs of the group (1.42, 2.13, 3.20 g·kg^−1)) is “CRE, UREA and UA of all the dogs administered Example 2 compound were increased significantly on day 2 after administration, the CRE and UA increased significantly on day 7 after administration, and they recovered to normal on day 14”. In data set [4], the “Increase of AUC of Azilsartan acid in the plasma” value is 70% and the “Increase of Cmax of Azilsartan acid in the plasma” value was found to be 98%.
